Test results reported in publication PMC6268831 (Molecules, 2012).

How the values were obtained:
rat thymocytes [1] = test: Cell viability of rat thymocytes by CCK-8 assay; format: cell-based; settings: 24 h, absorbance ratio to control cells, mean ± SD
Protocol: (§1) Experiments were performed on adult male Wistar rats (150−180 g), 8−10 weeks old, bred at the Vivarium of the Institute of Biomedical Research, Medical Faculty, Nis, Serbia, under conventional laboratory conditions and in accordance with national animal protection guidelines.
(§2) Rat thymocytes were isolated as described previously. The viability of the isolated cells, as determined by trypan blue dye exclusion test, was always over 95%. Isolated thymocytes were counted and adjusted to a density of 5 × 10^6 cells/mL of CM.
(§3) Isolated thymocytes were cultivated in 96-well round-bottom plates (NUNC, Aarhus, Denmark), containing a 100 µL of cell suspension (5 × 10^5 cells) in each well. […] Control samples were cultured in CM, with appropriate amounts of 96% ethanol (9.6%). Concentrations of tested substances used in our study were adopted from our previous report, regarding the effect of different compounds on thymocytes toxicity. All cell cultures were done in triplicates and cultivated for 24 h in an incubator (Galaxy, Wolf Laboratories, Pocklington, UK) with 5% CO2 at 37 °C.
Cell viability of rat thymocytes, after cultivation period, was evaluated by CCK-8 assay as was previously described. Ten µL of reaction mixture was added in each well. After 2 h of incubation, the solubilized formazan product was quantified spectrophotometrically, by using a microplate reader Perkin-Elmer (Wallac Victor^2V, Turku, Finland). Absorbance was measured at 450 nm. For each sample, basal intensity values were subtracted from those obtained after different treatments. Absorbances were presented as ratio for comparison with control samples.

rat thymocytes [2] = test: Intracellular ROS production in rat thymocytes (H2DCF-DA probe); format: cell-based; settings: 24 h, ratio of mean fluorescence intensity to control, mean ± SD
Protocol: as §1, §2, §3
A redox-sensitive probe (H2DCF-DA) was used to determine changes in overall cellular ROS levels, as described previously. The change in fluorescence (excitation 485 nm; emission 530 nm) was measured using a Perkin-Elmer fluorimeter (Wallac Victor^2V). For each sample, basal fluorescence intensity values were subtracted from those obtained after different treatments and results were presented as ratio of mean fluorescence intensity (MFI).

rat thymocytes [3] = test: Mitochondrial membrane potential of rat thymocytes (Rhodamine 123 uptake); format: cell-based; settings: 24 h, ratio of mean fluorescence intensity to control, mean ± SD
Protocol: Experiments were performed on adult male Wistar rats (150−180 g), 8−10 weeks old, bred at the Vivarium of the Institute of Biomedical Research, Medical Faculty, Nis, Serbia, under conventional laboratory conditions and in accordance with national animal protection guidelines. Rat thymocytes were isolated as described previously. The viability of the isolated cells, as determined by trypan blue dye exclusion test, was always over 95%. Isolated thymocytes were counted and adjusted to a density of 5 × 10^6 cells/mL of CM. […] Control samples were cultured in CM, with appropriate amounts of 96% ethanol (9.6%). Concentrations of tested substances used in our study were adopted from our previous report, regarding the effect of different compounds on thymocytes toxicity. All cell cultures were done in triplicates and cultivated for 24 h in an incubator (Galaxy, Wolf Laboratories, Pocklington, UK) with 5% CO2 at 37 °C. […] The fluorescence of intracellular Rhodamine 123 (excitation 485 nm; emission 530 nm) was measured by Perkin-Elmer fluorimeter, as published earlier. For each sample, basal fluorescence intensity values were subtracted from those obtained after different treatments and results were presented as ratio of mean fluorescence intensity (MFI).

[4] = test system: human acute monocytic leukemia cell line (THP-1); settings: tested as essential oil, lower concentrations than in this study, trypan blue viability assay; cited from earlier work

SMILES	Cytotoxicity (CCK-8 assay) (rat thymocytes [1]; 0.5 µg/mL)	Cytotoxicity (CCK-8 assay) (rat thymocytes [1]; 5 µg/mL)	Cytotoxicity (CCK-8 assay) (rat thymocytes [1]; 50 µg/mL)	Intracellular ROS production (rat thymocytes [2]; 0.5 µg/mL)	Intracellular ROS production (rat thymocytes [2]; 5 µg/mL)	Intracellular ROS production (rat thymocytes [2]; 50 µg/mL)	Mitochondrial membrane potential (rat thymocytes [3]; 0.5 µg/mL)	Mitochondrial membrane potential (rat thymocytes [3]; 5 µg/mL)	Mitochondrial membrane potential (rat thymocytes [3]; 50 µg/mL)	Toxic effect on THP-1 cells [4]
CC1(C)C2CCC1(C)C(O)C2 (stereo not shown) [Borneol, 4,7,7-trimethylbicyclo[2.2.1]heptan-3-ol]	1.067 ± 0.004	1.070 ± 0.015	0.975 ± 0.144	1.268 ± 0.102	1.224 ± 0.108	1.164 ± 0.191	0.799 ± 0.022	0.856 ± 0.084	0.876 ± 0.110	–
CC12CCC(CC1=O)C2(C)C (stereo not shown) [Camphor, 4,7,7-trimethylbicyclo[2.2.1]heptan-3-one]	0.927 ± 0.132	1.024 ± 0.083	1.111 ± 0.033	1.413 ± 0.068	1.399 ± 0.093	1.251 ± 0.049	0.740 ± 0.071	0.919 ± 0.047	0.925 ± 0.132	no significant toxic effect
